From patent US20130116251A1, “Novel HSP90 Inhibitor” (Nippon Kayaku Kabushiki Kaisha, priority 2005, published 2013)
pIC50: −log10 of the molar value.

Columns and labels:
[1] = system: HSP90 client protein Her2 in MCF7 cells; assay: Measurement test for amount of HSP90 client protein Her2 (Western blotting); type: cell-based; conditions: MCF7 cells treated 16 hours at 3-5 concentrations
Method: (§1) MCF7 cells (American Type Culture Collection, Rockville, Md.) were treated with the compounds of the present invention at various concentrations for 16 hours to confirm that the HSP90 inhibitors of the present invention induce a depression of intracellular concentration of the client protein or target polypeptide that bind to HSP90. The amount of the HSP90 client protein Her2 and ERα was evaluated by the Western blotting method.
(§2) One million cells were seeded in a 6 cm dish, and 24 hours later the compounds of the present invention (Example 1-2, Example 2-1, Example 2-13, Example 2-2, Example 3-4, Example 2-5, Example 3-16, Example 3-6, Example 2-7, Example 3-27, Example 2-10 and Example 3-18) were added. Cells treated with the compounds were washed, mixed with 150 μl of lysis buffer (RIPA, 150 mM NaCl, 1% NP40, 0.1% deoxycholate (sodium salt), 0.1% SDS, 1 mM EDTA, 10 mM Tris-HCl (pH 8.0)) and incubated at 4° C. for 30 minutes. The cell lysates were centrifuged (15,000 rpm, 20 minutes) and protein (20 μg) of the supernatant was subjected to SDS polyacrylamide gel electrophoresis (SDS-PAGE). After finishing the electrophoresis, proteins in the gel were transferred to a PVDF membrane. The membrane after the transfer was treated with a primary antibody against the HSP90 client protein (anti Her2 or anti ERa antibody, both from Santa Cruz Biotechnology, Santa Cruz, Calif.), then treated with secondary antibodies (anti-rabbit Ig, horse radish peroxidase conjugated F(ab′)2 fragment (derived from donkey): Amersham Biosciences, UK Limited, Buckinghamhshire, UK.) and then the amount of the client protein was detected as the intensity of chemiluminescence signal with a chemiluminescence reagent (ECL: Amersham Biosciences UK Limited, Buckinghamshire, UK).

rHSP90 = assay: HSP90 binding assay (BIACORE SPR; inhibition of binding between rHSP90 and fixed herbimycin A); conditions: concentration inhibiting binding between rHSP90 (50 μg/mL) and fixed herbimycin A by 50%, BIACORE-X SPR; read-out: HSP90 inhibitory activity IC50
Human lung cancer H460 = assay: Antitumor effect on nude mice transplanted with human lung cancer H460; type: in vivo; conditions: Table 9, tail vein, 5 days continuous, day 8, starting day = 1.0, control group 4.6 ± 3.1
Method: Antitumor Effect on Nude Mice Transplanted with Human Lung Cancer
Human lung cancer H460 tumor fragment, which had been passaged subcutaneously in nude mice, was made into about 3 mm fragment and transplanted subcutaneously to the back of nude mice using a trocar. When the tumor volume grew to about 50 mm^3 or above, the compound of the present invention was administered to the tail vein once a day for 5 or 7 days every day. The compound of the present invention was dissolved in DMSO, mixed with TWEEN 80, and then diluted with a 5% glucose injection solution and used. The vehicle of the compound was administered to the control group of OH-a01. The control groups in other experiments were not treated. The tumor volume was measured on the first administration day and on the evaluation day (7 or 8 days after the start of the administration), and the relative tumor volume of the evaluation day was obtained from the tumor volume on the first administration day. Further, the tumor volume was calculated by measuring the major axis (Lmm) and minor axis (Wmm) of the tumor and by the formula (L×W^2)/2.
Relative tumor volume represents the average relative tumor volume on day 7 after the start of the administration, assuming the tumor volume of the starting day is 1.0.
Relative tumor volume represents the average relative tumor volume on day 8 after the start of the administration, assuming the tumor volume of the starting day is 1.0.

[2] = system: Human breast cancer cells (MCF7); assay: Antiproliferative activity on MCF7 cells (methylene blue method); type: cell-based; conditions: Homo sapiens, MCF7, 72 h, MCF7 cells, 72 hours treatment, 660 nm absorbance after methylene blue staining; read-out: Antiproliferative activity IC50
[3] = system: HSP90 client protein ERα in MCF7 cells; assay: Measurement test for amount of HSP90 client protein ERα (Western blotting); type: cell-based; conditions: MCF7 cells treated 16 hours at 3-5 concentrations
Method: as §1, §2

COc1ccc(-n2c(-c3cc(C(C)C)c(O)cc3O)n[nH]c2=O)cc1 [OH-a08, 5-(2,4-dihydroxy-5-isopropyl-phenyl)-4-(4-methoxy-phenyl)-2,4-dihydro-[1,2,4]triazol-3-one]
amount of HSP90 client protein Her2 [1]: depression | pIC50 (rHSP90): 6.92 | Relative tumor volume (Average ± SD) (Human lung cancer H460; 100 mg/kg/day): 1.9 ± 1.0 | Relative tumor volume (Average ± SD) (Human lung cancer H460; 200 mg/kg/day): 1.1 ± 0.3 | pIC50 [2]: 7.96 | melting point: 272 °C (dec.) | amount of HSP90 client protein ERα [3]: depression
